Tested on: NLRP3 inflammasome
Assay: IL-1β Secretion Assay (NLRP3-dependent IL-1β secretion in PMA-differentiated THP-1 cells, nigericin activation, HTRF)
Assay type: cell-based
Details: Homo sapiens, THP-1, THP-1 cells, 100 ng/mL PMA 24 h, compound 20 h, 2.5 μM Nigericin 3 h; read-out: IC50 IL-1β Inhibition
Procedure: Cells were washed 1× with 100 ul PBS and replaced with fresh RPMI+5% FBS. Compounds were serial diluted in DMSO with 3 fold dilution for a total of 7 concentrations.
Compounds, once produced and prepared according to the present invention, can be assessed in variety of assays to characterize their activities. […] IC50 values of IL1β inhibition were calculated from the plot of percentage of inhibition versus the inhibitor concentration by a logistics fit. TABLE I depict examples of compounds according to generic Formulae I. Data which is <1 nM is listed as *****; data 1-10 nM is listed as ****; data 10-100 nM is listed as ***, data 100-300 nM is listed as **, data >300 nM is listed as *.

Compound	IC50 [nM]
Oc1cc(Br)ccc1-c1nnc(N[C@@H]2CCCNC2)n2nccc12 [Compound I-391]	1 to 10
FC(F)Oc1cc(C(F)(F)F)ccc1-c1nnc(N[C@@H]2CCCNC2)c2cnccc12 [Compound I-311]	1 to 10
Oc1cc(Cl)ccc1-c1nnc(N[C@@H]2CCCN(CC(F)F)C2)n2cncc12 [Compound I-559]	1 to 10
CN1CCC[C@H](Nc2nnc(-c3c(O)cccc3Cl)c3ccncc23)C1 [Compound I-139]	1 to 10
COc1cc(C(F)F)ccc1-c1nnc(N[C@@H]2CCCN(C)C2)c2cnccc12 [Compound I-234]	10 to 100
COc1ccc(-c2nnc(N[C@H]3C[C@](C)(O)C3)n3cccc23)c(OC(F)F)c1 [Compound I-472]	10 to 100
CC(=O)Nc1cc(C(F)(F)F)ccc1-c1nnc(N[C@@H]2CCCN(C)C2)c2ccccc12 [Compound I-126]	1 to 10
FC(F)Oc1cc(C(F)(F)F)ccc1-c1nnc(N[C@@H]2CCOC2)n2cccc12 [Compound I-388]	1 to 10
C[C@@H](O)CNc1nnc(-c2ccc(C3CC3)cc2O)c2cccn12 [Compound I-586]	100 to 300
CN1CCC[C@@H](Nc2nnc(-c3c(O)cccc3F)c3ccncc23)C1 [Compound I-72]	1 to 10
COc1ccc(-c2nnc(N[C@@H]3CCCNC3)c3cc(C)nn23)c(O)c1 [Compound I-339]	100 to 300
CN1CCC(Nc2nnc(-c3ccc(C(F)(F)F)cc3O)c3ccncc23)CC1 [Compound I-224]	10 to 100
OCCN1CCC[C@@H](Nc2nnc(-c3ccc(C(F)(F)F)cc3O)c3cccn23)C1 [Compound I-353]	1 to 10
Cc1nc(-c2ccc(-c3nnc(N[C@@H]4CCCN(C)C4)c4ccccc34)c(O)c2)ns1 [Compound I-38]	< 1
CN1CCC[C@@H](Nc2nnc(-c3ccc(C(F)(F)F)cc3O)c3c2N(C)CCC3)C1 [Compound I-154]	1 to 10
Cc1cc(Cl)cc(C)c1-c1nnc(N[C@@H]2CCCN(C)C2)c2cnccc12 [Compound I-218]	< 1
Oc1cc(C(F)(F)F)ccc1-c1nnc(N[C@@H]2CC[C@@H](O)C2)n2cccc12 [Compound I-449]	10 to 100
CN1CCC[C@@H](Nc2nnc(-c3ccc(C(F)(F)F)cc3OC(F)F)c3c(F)ccn23)C1 [Compound I-394]	1 to 10
CNS(=O)(=O)c1cc(C(F)(F)F)ccc1-c1nnc(N[C@@H]2CCCN(C)C2)c2cnccc12 [Compound I-169]	10 to 100
COc1c(C2CC2)ccc(F)c1-c1nnc(N[C@@H]2CCCN(C)C2)c2cnccc12 [Compound I-208]	10 to 100
CN1C[C@H](F)C[C@@H](Nc2nnc(-c3ccc(C(F)(F)F)cc3O)c3ccncc23)C1 [Compound I-280]	< 1
Cc1cc(C(F)(F)F)ccc1-c1nnc(N[C@@H]2CCCN(C)C2)c2cnccc12 [Compound I-290]	1 to 10
COc1cc(C(F)(F)F)ccc1-c1nnc(N[C@@H]2CCCN(CCOC(F)F)C2)c2cnccc12 [Compound I-276]	10 to 100

Compound	IC50 [nM]
Oc1cc(C(F)(F)F)ccc1-c1nnc(N[C@@H]2CCCN(CCOC(F)F)C2)c2cnccc12 [Compound I-293]	< 1
CCN1CCC[C@@H](Nc2nnc(-c3ccc(Br)cc3O)c3cccn23)C1 [Compound I-564]	< 1
CN1CCC[C@@H](Nc2nnc(-c3ccc(Cl)c(N)c3O)c3ccccc23)C1 [Compound I-163, (R)-2-Amino-3-chloro-6-(4-((1-methylpiperidin-3-yl)amino)phthalazin-1-yl)phenol]	10 to 100
CN1C[C@H](F)C[C@@H](Nc2nnc(-c3ccc(C(F)(F)F)cc3O)c3cncn23)C1 [Compound I-528]	< 1
COc1cc(Br)ccc1-c1nnc(N[C@@H]2CCCN(C)C2)n2nccc12 [Compound I-451]	10 to 100
O=C(c1ccc(-c2nnc(N[C@@H]3CCCNC3)c3ccccc23)c(O)c1)C(F)(F)F [Compound I-220]	100 to 300
CN1CCC[C@@H](Nc2nnc(-c3ccc(C4CC4)cc3C(F)(F)F)c3ccncc23)C1 [Compound I-158]	< 1
CN1CCCC(Cc2nnc(-c3ccc(C(F)(F)F)cc3O)c3ccccc23)C1 (centres unmarked) [Compound I-44]	1 to 10
Cc1noc2c(-c3ccc(C(F)(F)F)cc3O)nnc(N[C@@H]3CCCN(CCO)C3)c12 [Compound I-256, 2-[3-methyl-4-[[(3R)-1-(2-hydroxyethyl)-3-piperidyl]amino]isoxazolo[4,5-d]pyridazin-7-yl]-5-(trifluoromethyl)phenol]	10 to 100
CO[C@H]1CCC[C@@H](Nc2nnc(-c3ccc(Cl)cc3O)c3cncn23)C1 [Compound I-581]	1 to 10
Cc1cccc(-c2nnc(N[C@@H]3CCCN(C)C3)c3ccccc23)c1O [Compound I-27]	< 1
Cc1cc(Cl)cc(F)c1-c1nnc(N[C@@H]2CCCN(C)C2)c2cnccc12 [Compound I-198]	10 to 100
COc1cc(O)c(-c2nnc(N[C@@H]3C[C@@H](F)CN(C)C3)n3cccc23)c(F)c1 [Compound I-502]	< 1
COc1ccc(-c2nnc(N[C@@H]3CCCN(C)C3)c3c2CCC3)c(C(F)(F)F)c1 [Compound I-258]	10 to 100
Cc1ccc(-c2nnc(N[C@@H]3CCCN(C)C3)c3cnccc23)c(C(F)(F)F)c1 [Compound I-298]	1 to 10
CCN1CCC[C@@H](Nc2nnc(-c3ccc(Cl)cc3C(F)F)c3cccn23)C1 [Compound I-505]	10 to 100
CN1C[C@H](F)C[C@@H](Nc2nnc(-c3c(O)cc(Cl)cc3F)c3cccn23)C1 [Compound I-481]	1 to 10
Cc1ccc(-c2nnc(N[C@@H]3CCCN(C)C3)c3cnccc23)c(C(F)F)c1 [Compound I-299]	< 1
Oc1cc(C(F)(F)F)ccc1-c1nnc(N[C@@H]2CCCN(C3CCOCC3)C2)c2cnccc12 [Compound I-279]	< 1
CN1CCC[C@@H](Nc2nnc(-c3c(O)cc(C4CC4)cc3F)c3ccncc23)C1 [Compound I-196]	< 1
CCN1CCC[C@@H](Nc2nnc(-c3ccc(C(F)(F)F)cc3OC(F)F)c3cnccc23)C1 [Compound I-235]	1 to 10
OCCN1CCC[C@@H](Nc2nnc(-c3ccc(Cl)cc3O)c3cncn23)C1 [Compound I-436]	1 to 10
Oc1cc(C(F)(F)F)ccc1-c1nnc(N[C@@H]2CCCN(CC(F)(F)F)C2)n2cccc12 [Compound I-483]	100 to 300

Compound	IC50 [nM]
CN1CCC[C@@H](Nc2nnc(-c3ccc(C(F)(F)F)cc3CC(F)(F)F)c3ccncc23)C1 [Compound I-214, (R)—N-(1-Methylpiperidin-3-yl)-1-(2-(2,2,2-trifluoroethyl)-4-(trifluoromethyl)-phenyl)pyrido[3,4-d]pyridazin-4-amine]	< 1
CCN1C[C@H](F)C[C@@H](Nc2nnc(-c3c(O)cc(C)cc3F)c3cccn23)C1 [Compound I-571]	< 1
Oc1cc(C(F)(F)F)ccc1-c1nnc(N[C@H]2CNC[C@H](O)C2)c2ccccc12 [Compound I-83]	10 to 100
CN1CCC[C@@H](Nc2nnc(-c3ccc(C(F)(F)F)cc3OC(F)F)c3cccn23)C1 [Compound I-322, 1-[2-(Difluoromethoxy)-4-(trifluoromethyl)phenyl]-N-[(3R)-1-methyl-3-piperidyl]pyrrolo[1,2-d][1,2,4]triazin-4-amine]	< 1
CN1CCC[C@@H](Nc2nnc(-c3ccc(C(F)(F)F)cc3O)c3ccncc23)C1 [Compound I-7]	< 1
COc1cc(C(F)(F)F)ccc1-c1nnc(N[C@@H]2CCCCNC2)c2cnccc12 [Compound I-251]	100 to 300
Cn1cc(Nc2nnc(-c3ccc(C(F)(F)F)cc3O)c3ccncc23)cn1 [Compound I-180]	1 to 10
CC(C)(O)CN1CCC[C@@H](Nc2nnc(-c3ccc(C(F)(F)F)cc3O)c3cccn23)C1 [Compound I-364]	1 to 10
CN1CCC[C@@H](Nc2nnc(-c3ccc(OC(F)(F)F)cc3O)c3ccncc23)C1 [Compound I-102]	< 1
CCN1CCC[C@@H](Nc2nnc(-c3ccc(Br)cc3O)c3ccnn23)C1 [Compound I-453]	< 1
Cc1cc(O)c(-c2nnc(N[C@H]3C[C@@](C)(O)C3)n3cccc23)c(F)c1 [Compound I-466]	1 to 10
COc1ccc(-c2nnc(N[C@@H]3CCCN(C)C3)n3nc(C)cc23)c(C(F)(F)F)c1 [Compound I-381]	1 to 10
CN1CCC[C@@H](Nc2nnc(-c3ccc(Cl)cc3OCC(F)(F)F)c3cccn23)C1 [Compound I-485, (R)-1-(4-Chloro-2-(2,2,2-trifluoroethoxy)phenyl)-N-(1-methylpiperidin-3-yl)pyrrolo[1,2-d][1,2,4]triazin-4-amine]	10 to 100
Oc1cc(C(F)(F)F)ccc1-c1nnc(NC2CCCNCC2)c2cnccc12 (centres unmarked) [Compound I-253]	1 to 10
CCN1CCC[C@H](Nc2nnc(-c3c(O)cc(C4CC4)cc3F)c3cc(C)nn23)C1 [Compound I-554]	< 1
CN1CCC[C@@H](Nc2nnc(-c3c(O)cc(Cl)cc3F)c3cccn23)C1 [Compound I-432]	< 1
CN1C[C@H](F)C[C@@H](Nc2nnc(-c3ccc(C4CC4)cc3C(F)F)c3cccn23)C1 [Compound I-507]	10 to 100
Cc1cc(O)c(-c2nnc(N[C@@H]3CCCOC3)n3cccc23)c(F)c1 [Compound I-421]	1 to 10
COc1ccc(-c2nnc(N[C@@H]3CCCN(C)C3)c3cnccc23)c(O)c1 [Compound I-175]	< 1
CN1CCC[C@@H](Nc2nnc(-c3ccc(C(F)(F)F)cc3C(F)(F)F)c3ccncc23)C1 [Compound I-177]	1 to 10
C[C@@H]1COCCN1CCNc1nnc(-c2ccc(C(F)(F)F)cc2O)c2ccccc12 [Compound I-147]	10 to 100
CN1CCC[C@@H](Nc2nnc(-c3ccc(C(F)(F)F)cc3OC(F)F)c3cncn23)C1 [Compound I-624]	1 to 10
